The values below come from US10933091B1, “Composition and method for the treatment of type I diabetes” (Vector Vitale IP LLC, priority 2019, dated 2021).

The nature of data set [1]: Intraperitoneal administration to intact rats: accumulation of metals in liver and kidney tissues. The conditions noted are these: day 1 and day 7 after discontinuation, in words.
Protocol: The administration of these compositions was by intraperitoneal route.
Animals are placed in cages, 4 per cage, with free access to food/water. […] Administration is performed every other day, in the amount of 7 injections per animal (intraperitoneal method of drug administration). The dose of the drug injected to each animal was calculated on the basis of the ratio: 3750 μg of zinc per 1 kg of animal body weight. After the last injection, a half of the animals are maintained on hunger (for 12 hours) with free access to water. Upon expiration of this time period, the animals are taken out of the experiment. The second half of the animals continues to have free access to food/water for a further 7 days. On day 6 after the last injection, the animals are maintained on hunger (for 12 hours) with free access to water. Upon expiration of this time period, the animals are taken out of the experiment.
The total kidney, liver and muscle homogenates were prepared as follows. Organ excision and homogenization were carried out at a temperature of 1-4° C. Homogenization of tissues was carried out in 50 mM Tris-HCl buffer (pH 7.4) which contained 140 mM NaCl, 1 mM EDTA. The volume of the used buffer in ml was 5 times larger than the mass of isolated organs in grams. The isolated liver was perfused with chilled saline (0.9% NaCl) via the portal vein using a syringe. […]
Data set [2] in a line: Levels of divalent metal ions in muscles, kidneys and liver, diet-induced obesity study. The conditions noted are these: DIO rats (high-fat diet).
The subject of data set [3] is tryptophan, serotonin, monoamine oxidase. Nature of the data set: Serum tryptophan, serotonin and monoamine oxidase activity. In kind it is in vivo, rats. An excerpt: (§1) The samples were reprecipitated by centrifugation.
(§2) University. Medicine.-2000.-1, No. 494.-P. 40-43.

Data set [4] in a line: Serum biochemistry (albumin, triglycerides, cholesterol, free fatty acids), diet-induced obesity study. To be noted: DIO rats (high-fat diet), week 10.
Protocol: The levels of serum albumin in the animals were determined spectrophotometrically using a Microlab 300 biochemistry analyzer and standard PLIVA-Lachema Diagnostika test kits (Czech Republic).
Data set [5] deals with central serotonergic system (brain). Nature of the data set: Indicators of the central serotonergic system (brain). The data set is classed as in vivo, rats.
From the text: (§3) The tissue: buffer ratio was 1:10.
as §1, §2
(§4) The supernatant was used in further studies.

In data set [6] the test system is peripheral serotonergic system (duodenum). Nature of the data set: Indicators of the peripheral serotonergic system (duodenum). In kind it is in vivo, rats.
From the text: as §3, §1, §2, §4

The next data set concerns alkaline phosphatase. The conditions noted are these: serum; DIO rats (high-fat diet), week 10.

Protocol for alkaline phosphatase: To this end, high-fat diet obesity was induced in experimental animals as described in Example 2.
Serum alkaline phosphatase activity in the animals was measured spectrophotometrically using a Microlab 300 biochemical analyzer and standard PLIVA-Lachema Diagnostika test kits (Czech Republic).
As a result of hydrolytic cleavage of p-nitrophenyl phosphate catalyzed by alkaline phosphatase, p-nitrophenol is formed, which gives an intense yellow color in alkaline medium. The optical density of samples was measured at a wavelength of 405 nm. The alkaline phosphatase activity was expressed in relative units.

Regarding `CC(=O)[O-].CC(=O)[O-].[Zn+2]` [Zn acetate, Zinc acetate, reference compound], the “zinc level in kidney and liver tissues” value in data set [1] is “significantly increased”.

Regarding `N[C@@H](CC(=O)[O-])C(=O)[O-].[Zn+2]` [^64Zne, zinc aspartate], the Zinc level in data set [2] (kidneys) was found to be 20.28 ± 1.75 μg/ tissue; in data set [2] (liver) it was 31.43 ± 1.78 μg/ tissue; in data set [2] (muscles), 9.10 ± 0.42 μg/ tissue. For the same molecule, the Serotonin in data set [3] (DIO rats (high-fat diet)) was found to be 6.33 ± 0.51 µg/g; in data set [3] (control rats (standard diet)) it was 10.16 ± 0.62 µg/g; in data set [5] (DIO rats (high-fat diet)), 20.1 µg/g; in data set [5] (control rats (standard diet)) it was 25.51 ± 2.71 µg/g; in data set [6] (DIO rats (high-fat diet)), 9.73 µg/g; in data set [6] (control rats (standard diet)), 7.41 ± 0.54 µg/g. In addition, the Tryptophan in data set [3] (DIO rats (high-fat diet)) came out at 66.65 ± 9.62 µg/g; in data set [3] (control rats (standard diet)), 56.12 ± 7.58 µg/g; in data set [5] (DIO rats (high-fat diet)), 31.56 µg/g; in data set [5] (control rats (standard diet)), 87.71 ± 3.41 µg/g; in data set [6] (DIO rats (high-fat diet)), 89.4 µg/g; in data set [6] (control rats (standard diet)) it was 154.7 ± 13.6 µg/g. In data set [4], the Albumin levels was 166.2 ± 15.8 RU. Moreover, in data set [4], the Cholesterol is listed as 2.83 ± 0.23 mmol/L. The Free fatty acids in data set [4] worked out at 31.62 ± 7.92 mg/L. In addition, in data set [4], the Triglycerides was 2.79 ± 0.30 g/L. In data set [1], the “zinc level in kidney and liver tissues” value is recorded as “significantly increased”. In addition, the Alkaline phosphatase activity with alkaline phosphatase was 87.6 ± 18.7 RU.
